From patent US20250145566A1, “PHENETHYLAMINE DERIVATIVES, COMPOSITIONS, AND METHODS OF USE” (Cybin IRL Limited, priority 2022, published 2025)
Entries after “also recorded” stand apart in the source; their conditions may differ.

Tests used:
5-HT2C (h) = target: T1, 5-HT2C (h) (Homo sapiens, UniProt P28335); assay: 5-HT2C (h) agonist effect, IP1 HTRF functional assay; type: cell-based; settings: for agonist efficacy at 5-HT2C, in words: EMAX relative to 5-HT
T1 construct: expressed in transfected cells; host or cells: HEK-293 cells
T1 sequence (P28335 33-458): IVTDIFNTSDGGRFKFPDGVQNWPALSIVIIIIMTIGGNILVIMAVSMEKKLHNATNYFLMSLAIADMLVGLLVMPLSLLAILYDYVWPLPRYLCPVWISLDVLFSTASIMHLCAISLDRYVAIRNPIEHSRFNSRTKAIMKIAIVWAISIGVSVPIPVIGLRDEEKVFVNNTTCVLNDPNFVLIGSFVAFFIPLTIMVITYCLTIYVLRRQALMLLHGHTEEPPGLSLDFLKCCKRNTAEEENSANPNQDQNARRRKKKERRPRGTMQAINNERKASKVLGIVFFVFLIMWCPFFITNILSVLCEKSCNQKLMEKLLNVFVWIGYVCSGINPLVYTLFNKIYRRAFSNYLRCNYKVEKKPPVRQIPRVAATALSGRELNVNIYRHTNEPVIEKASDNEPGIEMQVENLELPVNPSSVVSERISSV

Dopamine transporter = Dopamine transporter (Homo sapiens, UniProt Q01959); assay: Dopamine transporter uptake (h); type: cell-based
Rat Liver Microsomes = assay: Rat liver microsomes (RLM) in vitro metabolism; type: in vitro ADME; settings: result in words
Experimental: Rat Liver Microsomes (RLM). Male Sprague-Dawley rat liver microsomes were purchased from XenoTech. The reaction mixture, minus NADPH, was prepared as described in Table 10. The test compound was added into the reaction mixture at a final concentration of 1 μM. The control compound, testosterone, was run simultaneously with the test compound in a separate reaction. The reaction mixture (without cofactor) was equilibrated in a shaking water bath at 37° C. for 5 minutes. The reaction was initiated by the addition of the cofactor, and the mixture was incubated in a shaking water bath at 37° C. Aliquots (150 μL) were withdrawn at 0, 5, 10, 20, 30, 60, and for some assays at 120 minutes. Test compound and testosterone samples were immediately combined with 150 μL of ice-cold acetonitrile (ACN) containing 0.1% formic acid and internal standard to terminate the reaction. The samples were then mixed and centrifuged to precipitate proteins. All samples were assayed by LC-MS/MS using electrospray ionization. The peak area response ratio (PARR) of analyte to internal standard at each time point was compared to the PARR at time 0 to determine the percent remaining at each time point. Half-lives were calculated using GraphPad software, fitting to a single-phase exponential decay equation.
In a different series of reactions using RLM, a 10 mM stock solution of the test compound was prepared in DMSO. From this stock solution, an intermediate stock solution of 1 mM was prepared by diluting the compound in DMSO and from this intermediate stock solution, a working solution of 0.30 mM was prepared by diluting the compound in ACN:Water (50:50) as a cocktail of two compounds (i.e., 30 μL the non-deuterated and the deuterated compound in 40 μL diluent in 100 μL total volume). Following this, a master mix of rat liver microsomes (final concentration 0.5 mg/ml, Xenotech Cat #R1000; Lot #1610290) and 0.1 M potassium phosphate buffer was prepared and pre-incubated for 5 min at 37° C. The test compound mixture was then added to achieve a final test article concentration of 1 μM (for each analog if co-dosed; 0.2% DMSO); verapamil was used as a positive control. Subsequently, 10 mM NADPH prepared in 0.1 M potassium phosphate buffer was added (final concentration 1 mM) to initiate the reaction and samples were incubated at 37° C. for the desired time points (0, 5, 15, 30, 45, 60 min). At each time point, 40 μL of the samples were withdrawn and reactions were stopped using 200 μL chilled ACN containing 0.1% formic acid and internal standard carbamazepine (10 ng/mL). The samples were centrifuged, and the supernatant was analyzed by LC-MS/MS. The percent compound remaining at each time point was calculated with respect to that of the 0 min sample. The data were then analyzed to calculate half-life. Blank samples were prepared using DMSO (without the test compound).

MAO-B = target: T2, MAO-B (Homo sapiens, UniProt P27338); assay: human MAO-B in vitro metabolism; type: in vitro ADME; settings: human MAO-B enzyme (Corning), test compound 1 μM, read-out: MAO-B t1/2
T2 construct: purchased Corning 456284
T2 sequence (P27338 1-520): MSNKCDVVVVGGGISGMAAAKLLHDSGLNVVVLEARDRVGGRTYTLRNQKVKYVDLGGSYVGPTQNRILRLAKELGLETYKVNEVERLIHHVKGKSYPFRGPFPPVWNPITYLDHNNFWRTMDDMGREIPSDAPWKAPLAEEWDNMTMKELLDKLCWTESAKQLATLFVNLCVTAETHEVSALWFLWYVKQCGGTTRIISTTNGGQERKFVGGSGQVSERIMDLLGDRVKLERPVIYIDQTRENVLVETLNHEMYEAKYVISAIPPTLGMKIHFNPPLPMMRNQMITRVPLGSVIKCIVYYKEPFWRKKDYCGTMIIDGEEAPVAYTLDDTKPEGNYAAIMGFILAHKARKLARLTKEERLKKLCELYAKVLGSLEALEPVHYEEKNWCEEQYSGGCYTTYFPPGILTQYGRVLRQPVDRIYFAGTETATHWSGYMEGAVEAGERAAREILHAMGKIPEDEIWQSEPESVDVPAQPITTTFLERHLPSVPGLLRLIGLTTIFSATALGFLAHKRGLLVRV
Experimental: In a different series of reactions using human MAO-A and MAO-B, a 10 mM stock solution of the test compound was prepared in DMSO. From this stock solution, an intermediate stock solution of 1 mM was prepared by diluting the compound in DMSO and from this intermediate stock solution, a working solution of 0.30 mM was prepared by diluting the compound in ACN:Water (50:50) as cocktail of 2 compounds (30 μL each compound in 40 μL diluent for 100 μL). Following this, a master mix of 0.1 M potassium phosphate buffer and test compound mixture i.e., the non-deuterated and the deuterated analog, were prepared to achieve final drug concentration of 1 μM (0.2% DMSO) for the required number of reactions. The aforementioned master mix was pre-incubated at 37° C. for 5 min. To this master mix, MAO-A (final protein conc. 0.1 mg/mL; Corning Cat #456283; Lot #1173003) or MAO-B (final protein conc. 0.1 mg/mL; Corning Cat #456284; Lot #0318001) was added to initiate the reaction. The samples were then incubated at 37° C. for the desired time points. At each time point (0, 5, 15, 30, 45, 60), 40 μL of the samples were withdrawn and reactions were stopped using 200 μL chilled ACN containing 0.1% formic acid and internal standard Carbamazepine (10 ng/mL). The samples were centrifuged, and the supernatant was analyzed by LC-MS/MS. The percent compound remaining at each time point was calculated with respect to that of the 0 min sample. The data were then analyzed to calculate half-life and intrinsic clearance (CLint). Blank samples were prepared using DMSO (without the test compound).

Dopamine transporter, sequence (Q01959 whole entry): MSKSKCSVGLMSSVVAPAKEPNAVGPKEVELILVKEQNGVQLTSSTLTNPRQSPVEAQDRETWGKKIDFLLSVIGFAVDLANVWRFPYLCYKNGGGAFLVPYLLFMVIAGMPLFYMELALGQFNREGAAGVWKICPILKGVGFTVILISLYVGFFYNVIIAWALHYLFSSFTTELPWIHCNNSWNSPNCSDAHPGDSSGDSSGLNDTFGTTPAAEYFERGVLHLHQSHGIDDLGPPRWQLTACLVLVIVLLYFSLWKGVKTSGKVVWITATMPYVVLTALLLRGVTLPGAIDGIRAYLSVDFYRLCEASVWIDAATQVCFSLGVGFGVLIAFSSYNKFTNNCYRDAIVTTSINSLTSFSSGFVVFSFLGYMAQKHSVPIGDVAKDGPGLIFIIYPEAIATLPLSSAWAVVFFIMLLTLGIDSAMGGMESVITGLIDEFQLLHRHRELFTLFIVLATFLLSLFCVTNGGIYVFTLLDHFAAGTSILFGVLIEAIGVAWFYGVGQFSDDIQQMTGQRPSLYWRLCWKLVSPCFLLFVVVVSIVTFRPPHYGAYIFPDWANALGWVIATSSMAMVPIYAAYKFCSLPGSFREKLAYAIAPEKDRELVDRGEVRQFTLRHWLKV

Row | SMILES | EC50 (5-HT2C (h)) | Emax at 3 µM (5-HT2C (h); at 3 μM, relative to 5-HT, read-out: Function 5-HT2C EMAX) | Function 5-HT2C (Gq-IP1, efficacy relative to 5-HT), agonist type (5-HT2C (h); tested at 1, 3, 10, 100 μM) | agonist efficacy at 5-HT2C, in words (5-HT2C (h); tested at 1, 3, 10, 100 μM) | IC50 (Dopamine transporter; Function DAT Estimated IC50, blocking reuptake of DA) | inhibition at 100 µM (Dopamine transporter; at 100 μM, read-out: Function DAT, inhibition of DAT) | Function DAT (blocking reuptake of DA), efficacy in words (Dopamine transporter; tested at 1, 10, 100 μM) | efficacy for blocking DA uptake through DAT, in words (Dopamine transporter; tested at 1, 10, 100 μM) | disappearance in RLM, NADPH dependence (Rat Liver Microsomes) | half-life at 1 µM (MAO-B)
1 | NCCc1ccc2c(c1)OCS2 [II-14, 2-(benzo[d][1,3]oxathiol-6-yl)ethan-1-amine] | < 0.75 µM | 107% | Full agonist - | nearly full or full agonist; also recorded: full agonists | ~10 µM | 95% | Near full efficacy, | full efficacy | NADPH-independent | < 0.0833 h
2 | CC(N)Cc1ccc2c(c1)OCS2 (centres unmarked) [II-16, 1-(benzo[d][1,3]oxathiol-6-yl)propan-2-amine] |  |  |  | nearly full or full agonist; also recorded: full agonists |  |  |  | full efficacy | NADPH-independent | 14.3 h
